HELM strings list units from the 5' end as sugar, base in round brackets, then linkage (d deoxyribose, r ribose, m 2'-O-methyl, p phosphodiester). Strings are as the collection lists them, not checked against the first reports. ss, as = sense and antisense strand; [una] = unlocked nucleic acid; [fl2r] = 2'-fluoro
Settings: siRNA
Further: test system not given here.

Point of comparison: “RNA1{r(G)p.r(G)p.r(A)p.r(A)p.r(G)p.r(A)p.r(A)p.r(G)p.r(A)p.r(U)p.r(A)p.r(G)p.r(A)p.r(G)p.r(C)p.r(A)p.r(U)p.r(C)p.r(C)p.r(T)p.r(T)}|RNA2{r(G)p.r(G)p.r(A)p.r(U)p.r(G)p.r(C)p.r(U)p.r(C)p.[fl2r](U)p.r(A)p.r(U)p.r(C)p.r(U)p.r(U)p.r(C)p.r(U)p.r(U)p.r(C)p.r(C)p.r(T)p.r(T)}$$$RNA1{StrandType:ss}|RNA2{StrandType:as}$”, target mRNA knockdown 37%. Against it:
- RNA1{r(G)p.r(G)p.r(A)p.r(A)p.r(G)p.m(U)p.r(A)p.r(A)p.r(G)p.r(G)p.r(A)p.r(C)p.m(C)p.r(A)p.r(G)p.r(A)p.r(G)p.r(A)p.r(C)p.r(T)p.r(T)}|RNA2{r(G)p.r(U)p.r(C)p.r(U)p.r(C)p.m(U)p.r(G)p.r(G)p.r(U)p.r(C)p.r(C)p.r(U)p.m(U)p.r(A)p.r(C)p.r(U)p.r(U)p.r(C)p.r(C)p.r(T)p.r(T)}$$$RNA1{StrandType:ss}|RNA2{StrandType:as}$ — higher, 41%
- RNA1{r(G)p.r(G)p.r(A)p.r(A)p.r(G)p.r(A)p.r(A)p.r(G)p.r(A)p.[fl2r](U)p.r(A)p.r(G)p.r(A)p.r(G)p.[fl2r](C)p.r(A)p.r(U)p.r(C)p.r(C)p.r(T)p.r(T)}|RNA2{r(G)p.r(G)p.r(A)p.[fl2r](U)p.r(G)p.r(C)p.r(U)p.r(C)p.[fl2r](U)p.r(A)p.r(U)p.r(C)p.r(U)p.r(U)p.r(C)p.r(U)p.r(U)p.r(C)p.r(C)p.r(T)p.r(T)}$$$RNA1{StrandType:ss}|RNA2{StrandType:as}$ — the same, 37%
- RNA1{r(G)p.r(G)p.r(A)p.r(A)p.r(G)p.r(U)p.r(C)p.m(C)p.m(A)p.r(C)p.r(C)p.m(U)p.m(U)p.r(C)p.r(U)p.r(C)p.r(C)p.r(G)p.r(A)p.r(T)p.r(T)}|RNA2{r(U)p.r(C)p.r(G)p.r(G)p.r(A)p.r(G)p.r(A)p.r(A)p.r(G)p.r(G)p.m(U)p.r(G)p.r(G)p.r(A)p.r(C)p.r(U)p.r(U)p.r(C)p.r(C)p.r(T)p.r(T)}$$$RNA1{StrandType:ss}|RNA2{StrandType:as}$ — higher, 51%
- RNA1{r(G)p.r(G)p.r(A)p.r(A)p.r(G)p.r(U)p.r(C)p.r(C)p.m(A)p.r(C)p.r(C)p.r(U)p.r(U)p.r(C)p.r(U)p.r(C)p.r(C)p.r(G)p.r(A)p.r(T)p.r(T)}|RNA2{r(U)p.r(C)p.r(G)p.r(G)p.r(A)p.r(G)p.r(A)p.r(A)p.r(G)p.r(G)p.m(U)p.r(G)p.r(G)p.r(A)p.r(C)p.r(U)p.r(U)p.r(C)p.r(C)p.r(T)p.r(T)}$$$RNA1{StrandType:ss}|RNA2{StrandType:as}$ — higher, 54%
- RNA1{r(G)p.r(G)p.r(A)p.r(C)p.m(U)p.r(A)p.r(C)p.m(U)p.r(A)p.r(A)p.r(C)p.r(C)p.r(U)p.r(C)p.m(C)p.r(A)p.r(G)p.r(U)p.r(U)p.r(T)p.r(T)}|RNA2{r(A)p.r(A)p.r(C)p.m(U)p.r(G)p.r(G)p.r(A)p.r(G)p.r(G)p.r(U)p.m(U)p.r(A)p.r(G)p.m(U)p.r(A)p.r(G)p.r(U)p.r(C)p.r(C)p.r(T)p.r(T)}$$$RNA1{StrandType:ss}|RNA2{StrandType:as}$ — higher, 69%
- RNA1{r(G)p.r(G)p.r(A)p.r(C)p.r(A)p.r(U)p.r(U)p.r(C)p.r(A)p.r(G)p.r(A)p.r(A)p.r(C)p.r(A)p.r(A)p.r(G)p.r(A)p.r(A)p.r(A)p.[una](U)p.[una](U)}|RNA2{[una](U)p.r(U)p.r(U)p.r(C)p.r(U)p.r(U)p.r(G)p.r(U)p.r(U)p.r(C)p.r(U)p.r(G)p.r(A)p.r(A)p.r(U)p.r(G)p.r(U)p.r(C)p.r(C)p.[una](U)p.[una](U)}$$$RNA1{StrandType:ss}|RNA2{StrandType:as}$ — higher, 75%
- RNA1{r(G)p.r(G)p.r(A)p.r(C)p.r(A)p.r(U)p.r(U)p.r(C)p.r(A)p.r(G)p.r(A)p.r(A)p.r(C)p.r(A)p.r(A)p.r(G)p.r(A)p.r(A)p.r(A)p.[una](U)p.[una](U)}|RNA2{r(U)p.[una](U)p.r(U)p.r(C)p.r(U)p.r(U)p.r(G)p.r(U)p.r(U)p.r(C)p.r(U)p.r(G)p.r(A)p.r(A)p.r(U)p.r(G)p.r(U)p.r(C)p.r(C)p.[una](U)p.[una](U)}$$$RNA1{StrandType:ss}|RNA2{StrandType:as}$ — lower, 36%
- RNA1{r(G)p.r(G)p.r(A)p.r(C)p.r(A)p.r(U)p.r(U)p.r(C)p.r(A)p.r(G)p.r(A)p.r(A)p.r(C)p.r(A)p.r(A)p.r(G)p.r(A)p.r(A)p.r(A)p.[una](U)p.[una](U)}|RNA2{r(U)p.r(U)p.[una](U)p.r(C)p.r(U)p.r(U)p.r(G)p.r(U)p.r(U)p.r(C)p.r(U)p.r(G)p.r(A)p.r(A)p.r(U)p.r(G)p.r(U)p.r(C)p.r(C)p.[una](U)p.[una](U)}$$$RNA1{StrandType:ss}|RNA2{StrandType:as}$ — lower, 0%
- RNA1{r(G)p.r(G)p.r(A)p.r(C)p.r(A)p.r(U)p.r(U)p.r(C)p.r(A)p.r(G)p.r(A)p.r(A)p.r(C)p.r(A)p.r(A)p.r(G)p.r(A)p.r(A)p.r(A)p.[una](U)p.[una](U)}|RNA2{r(U)p.r(U)p.r(U)p.[una](C)p.r(U)p.r(U)p.r(G)p.r(U)p.r(U)p.r(C)p.r(U)p.r(G)p.r(A)p.r(A)p.r(U)p.r(G)p.r(U)p.r(C)p.r(C)p.[una](U)p.[una](U)}$$$RNA1{StrandType:ss}|RNA2{StrandType:as}$ — higher, 50%
- RNA1{r(G)p.r(G)p.r(A)p.r(C)p.r(A)p.r(U)p.r(U)p.r(C)p.r(A)p.r(G)p.r(A)p.r(A)p.r(C)p.r(A)p.r(A)p.r(G)p.r(A)p.r(A)p.r(A)p.[una](U)p.[una](U)}|RNA2{r(U)p.r(U)p.r(U)p.r(C)p.[una](U)p.r(U)p.r(G)p.r(U)p.r(U)p.r(C)p.r(U)p.r(G)p.r(A)p.r(A)p.r(U)p.r(G)p.r(U)p.r(C)p.r(C)p.[una](U)p.[una](U)}$$$RNA1{StrandType:ss}|RNA2{StrandType:as}$ — the same, 37%
- RNA1{r(G)p.r(G)p.r(A)p.r(C)p.r(A)p.r(U)p.r(U)p.r(C)p.r(A)p.r(G)p.r(A)p.r(A)p.r(C)p.r(A)p.r(A)p.r(G)p.r(A)p.r(A)p.r(A)p.[una](U)p.[una](U)}|RNA2{r(U)p.r(U)p.r(U)p.r(C)p.r(U)p.[una](U)p.r(G)p.r(U)p.r(U)p.r(C)p.r(U)p.r(G)p.r(A)p.r(A)p.r(U)p.r(G)p.r(U)p.r(C)p.r(C)p.[una](U)p.[una](U)}$$$RNA1{StrandType:ss}|RNA2{StrandType:as}$ — higher, 57%
- RNA1{r(G)p.r(G)p.r(A)p.r(C)p.r(A)p.r(U)p.r(U)p.r(C)p.r(A)p.r(G)p.r(A)p.r(A)p.r(C)p.r(A)p.r(A)p.r(G)p.r(A)p.r(A)p.r(A)p.[una](U)p.[una](U)}|RNA2{r(U)p.r(U)p.r(U)p.r(C)p.r(U)p.r(U)p.[una](G)p.r(U)p.r(U)p.r(C)p.r(U)p.r(G)p.r(A)p.r(A)p.r(U)p.r(G)p.r(U)p.r(C)p.r(C)p.[una](U)p.[una](U)}$$$RNA1{StrandType:ss}|RNA2{StrandType:as}$ — higher, 78%
- RNA1{r(G)p.r(G)p.r(A)p.r(C)p.r(A)p.r(U)p.r(U)p.r(C)p.r(A)p.r(G)p.r(A)p.r(A)p.r(C)p.r(A)p.r(A)p.r(G)p.r(A)p.r(A)p.r(A)p.[una](U)p.[una](U)}|RNA2{r(U)p.r(U)p.r(U)p.r(C)p.r(U)p.r(U)p.r(G)p.r(U)p.r(U)p.[una](C)p.r(U)p.r(G)p.r(A)p.r(A)p.r(U)p.r(G)p.r(U)p.r(C)p.r(C)p.[una](U)p.[una](U)}$$$RNA1{StrandType:ss}|RNA2{StrandType:as}$ — lower, 17%
- RNA1{r(G)p.r(G)p.r(A)p.r(G)p.m(C)p.r(A)p.r(C)p.r(G)p.r(C)p.r(U)p.m(U)p.r(A)p.r(C)p.m(U)p.r(A)p.r(C)p.r(C)p.r(U)p.r(U)p.r(T)p.r(T)}|RNA2{r(A)p.r(A)p.r(G)p.r(G)p.m(U)p.r(A)p.r(G)p.m(U)p.r(A)p.r(A)p.r(G)p.r(C)p.r(G)p.m(U)p.r(G)p.r(C)p.r(U)p.r(C)p.r(C)p.r(T)p.r(T)}$$$RNA1{StrandType:ss}|RNA2{StrandType:as}$ — higher, 68%
- RNA1{r(G)p.r(G)p.r(A)p.r(G)p.r(C)p.m(U)p.m(A)p.r(G)p.r(A)p.r(C)p.r(G)p.r(G)p.r(G)p.m(U)p.r(A)p.r(C)p.r(G)p.r(A)p.r(G)p.r(T)p.r(T)}|RNA2{r(C)p.r(U)p.r(C)p.r(G)p.r(U)p.r(A)p.r(C)p.r(C)p.r(C)p.r(G)p.r(U)p.r(C)p.m(U)p.r(A)p.r(G)p.r(C)p.r(U)p.r(C)p.r(C)p.r(T)p.r(T)}$$$RNA1{StrandType:ss}|RNA2{StrandType:as}$ — higher, 81%
- RNA1{r(G)p.r(G)p.r(A)p.r(G)p.r(C)p.m(U)p.r(A)p.r(G)p.r(A)p.r(C)p.r(G)p.r(G)p.r(G)p.m(U)p.r(A)p.r(C)p.r(G)p.r(A)p.r(G)p.r(T)p.r(T)}|RNA2{r(C)p.r(U)p.r(C)p.r(G)p.m(U)p.r(A)p.r(C)p.r(C)p.r(C)p.r(G)p.r(U)p.r(C)p.m(U)p.r(A)p.r(G)p.r(C)p.r(U)p.r(C)p.r(C)p.r(T)p.r(T)}$$$RNA1{StrandType:ss}|RNA2{StrandType:as}$ — higher, 82%
- RNA1{r(G)p.r(G)p.r(A)p.r(G)p.r(C)p.r(A)p.r(C)p.r(G)p.r(C)p.r(U)p.m(U)p.r(A)p.r(C)p.m(U)p.r(A)p.r(C)p.r(C)p.r(U)p.r(U)p.r(T)p.r(T)}|RNA2{r(A)p.r(A)p.r(G)p.r(G)p.m(U)p.r(A)p.r(G)p.m(U)p.r(A)p.r(A)p.r(G)p.r(C)p.r(G)p.r(U)p.r(G)p.r(C)p.r(U)p.r(C)p.r(C)p.r(T)p.r(T)}$$$RNA1{StrandType:ss}|RNA2{StrandType:as}$ — higher, 69%
- RNA1{r(G)p.r(G)p.r(C)p.m(C)p.r(A)p.r(A)p.r(A)p.r(G)p.m(U)p.r(A)p.r(A)p.r(U)p.r(C)p.r(G)p.m(U)p.r(G)p.r(G)p.r(U)p.r(U)p.r(T)p.r(T)}|RNA2{r(A)p.r(A)p.r(C)p.m(C)p.r(A)p.r(C)p.r(G)p.r(A)p.r(U)p.m(U)p.r(A)p.r(C)p.r(U)p.r(U)p.m(U)p.r(G)p.r(G)p.r(C)p.r(C)p.r(T)p.r(T)}$$$RNA1{StrandType:ss}|RNA2{StrandType:as}$ — higher, 86%
- RNA1{r(G)p.r(G)p.r(C)p.r(C)p.r(A)p.r(A)p.r(A)p.r(G)p.m(U)p.r(A)p.r(A)p.r(U)p.r(C)p.r(G)p.r(U)p.r(G)p.r(G)p.r(U)p.r(U)p.r(T)p.r(T)}|RNA2{r(A)p.r(A)p.r(C)p.r(C)p.r(A)p.r(C)p.r(G)p.r(A)p.r(U)p.m(U)p.r(A)p.r(C)p.r(U)p.r(U)p.r(U)p.r(G)p.r(G)p.r(C)p.r(C)p.r(T)p.r(T)}$$$RNA1{StrandType:ss}|RNA2{StrandType:as}$ — higher, 85%

From the OligoGym collection
